Assay results: PMC12004523, “Integrated Virtual Screening Approach Identifies New CYP19A1 Inhibitors” (Journal of Chemical Information and Modeling, 2025)

Tests used:
[1] = biological target: T1, human CYP19A1 (aromatase) (Homo sapiens, UniProt P11511); assay: cell-based; parameters: Whole-yeast human CYP19A1/CPR testosterone aromatization; estradiol quantified by yeast biosensor fluorescence, flow cytometry, per cent of control; conditions: Saccharomyces cerevisiae byMM1712; 1 uM inhibitor, testosterone substrate; read-out: % of control remaining
T1 sequence (P11511 1-503): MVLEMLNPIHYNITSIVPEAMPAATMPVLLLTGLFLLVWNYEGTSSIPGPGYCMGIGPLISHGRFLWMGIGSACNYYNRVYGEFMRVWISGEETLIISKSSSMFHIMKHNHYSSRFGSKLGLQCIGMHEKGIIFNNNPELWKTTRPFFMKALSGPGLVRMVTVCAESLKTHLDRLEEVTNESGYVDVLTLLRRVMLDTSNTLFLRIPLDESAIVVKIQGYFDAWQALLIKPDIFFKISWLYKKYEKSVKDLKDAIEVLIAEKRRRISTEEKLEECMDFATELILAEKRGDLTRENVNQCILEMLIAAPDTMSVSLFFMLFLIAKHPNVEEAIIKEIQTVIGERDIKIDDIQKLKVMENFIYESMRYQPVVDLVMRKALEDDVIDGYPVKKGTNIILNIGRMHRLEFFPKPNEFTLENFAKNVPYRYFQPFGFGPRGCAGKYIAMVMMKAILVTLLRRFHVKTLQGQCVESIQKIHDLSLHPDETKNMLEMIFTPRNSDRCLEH
T1 sequence (P16435 2-677 partner): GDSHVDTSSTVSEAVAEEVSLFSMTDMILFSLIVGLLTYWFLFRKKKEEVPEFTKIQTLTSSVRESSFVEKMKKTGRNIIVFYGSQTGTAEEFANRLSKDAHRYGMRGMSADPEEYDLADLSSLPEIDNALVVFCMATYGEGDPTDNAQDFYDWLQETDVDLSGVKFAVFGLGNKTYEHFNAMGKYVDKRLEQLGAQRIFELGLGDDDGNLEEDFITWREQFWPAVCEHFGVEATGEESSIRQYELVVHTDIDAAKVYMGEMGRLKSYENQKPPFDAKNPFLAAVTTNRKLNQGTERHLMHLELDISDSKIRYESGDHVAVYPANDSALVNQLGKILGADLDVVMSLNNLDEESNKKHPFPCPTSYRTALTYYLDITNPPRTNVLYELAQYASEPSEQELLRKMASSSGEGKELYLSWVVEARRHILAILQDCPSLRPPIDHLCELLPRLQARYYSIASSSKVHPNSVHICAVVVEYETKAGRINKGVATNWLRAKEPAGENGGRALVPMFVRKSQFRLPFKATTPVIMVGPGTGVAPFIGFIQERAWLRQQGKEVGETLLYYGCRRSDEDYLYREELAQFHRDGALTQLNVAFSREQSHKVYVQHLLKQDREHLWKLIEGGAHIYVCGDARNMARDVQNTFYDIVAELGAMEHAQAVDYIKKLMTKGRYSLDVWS
Method: Initially, these inhibitors were applied at a final concentration of 10 μM. […] In addition, 9a lacks a Cl atom and 9b lacks a keto group in comparison to 9. […] (a) Illustration of the enzymatic assay based on heterologous expression of human CYP19A1 used for testing candidate CYP19A1 inhibitors. […] Data are presented as mean ± SEM (n = 3).

[2] = biological target: T1, human CYP19A1 (aromatase); assay: aromatase inhibition in yeast expressing human CYP19A1 and CPR, estradiol biosensor (yEGFP, flow cytometry); format: cell-based
[3] = biological target: T1, human CYP19A1 (aromatase); assay: cell-based; parameters: Yeast expressing human CYP19A1/CPR converts testosterone; estradiol in supernatant read by yeast biosensor, flow cytometry; conditions: for inhibition at 1 µM: read-out: % inhibition (1 μM); for inhibition at 10 µM: read-out: % inhibition (10 μM)
Method: A 14-h precultivation period ensured that the aromatase catalytic capacity remained consistent across all independent experiments and the inhibitor cannot act on P450 expression levels. The initial OD600 was diluted to 0.04, and then the yeast culture’s OD600 was measured and adjusted to 2.00 with fresh SDC medium. One mL of yeast solution (OD600 = 2.00) was poured into the wells of a 48-well deep-well cell culture plate (Axygen P-5 ML-48-C). Subsequently, 1 mL of SDC medium containing 120 nM testosterone and either 10 μM or 1 μM of the inhibitor was added to each well containing the yeast solution. The mixture was incubated at 30 °C and 240 rpm for 2 h. After incubation, 1.5 mL of the mixture from each well was transferred to 2 mL tubes and centrifuged at 16,000 rpm to pellet the yeast cells. Then, 1.2 mL of the supernatant was moved to 1.5 mL tubes and labeled according to the inhibitor concentration. For each sample, 1 mL of the supernatant was transferred to a different well of a 48-well deep-well plate. Next, 980 μL of SDC medium and 20 μL of the precultured byMM1984 biosensor cell solution (OD600 adjusted to 5.00 after 14 h of preculture) were added to each well. Finally, flow cytometry was performed as previously described. The entire assay was repeated in three independent experiments to calculate the mean values. […] Initially, these inhibitors were applied at a final concentration of 10 μM. […] In addition, 9a lacks a Cl atom and 9b lacks a keto group in comparison to 9. […] Several factors were considered to avoid assay artifacts.[46] The biosensor gene circuit used in this study is orthogonal to the yeast chassis,[47] ensuring no interference between the biosensor and the yeast host, thus preventing false positives.

remaining activity at 1 µM [1] [%] | IC50 [2] [nM] | inhibition at 1 µM [3] [%] | inhibition at 10 µM [3] [%] | Compound
13 ± 2 | 271 ± 51 |  |  | CC(NC(=O)c1cc2cc(Cl)ccc2oc1=O)c1ccc(-n2ccnc2)cc1 (racemic) [compound 9, N-(1-(4-(1H-imidazol-1-yl)phenyl)ethyl)-6-chloro-2-oxo-2H-chromene-3-carboxamide]
50 ± 1 | 1040 ± 63 | 51.9 | 87.4 | O=C(NCc1ccc(-n2ccnc2)cc1)c1cc2ccccc2oc1=O [9a]
58 ± 1 | 1250 ± 190 | 43.8 | 85 | O=C(NCc1ccc(-n2ccnc2)cc1)C1=Cc2cc(Cl)ccc2OC1 [9b]
 |  |  | 25.9 | O=C(Nc1cccc(-c2cn3cccnc3n2)c1)c1ccc(Cl)cc1Cl [compound 1]
 |  |  | 30.9 | CSc1ccc2nc(N3CC(Cn4ccnc4)C3)sc2c1 [compound 2]
 |  |  | 22.8 | O=C(Cc1c(F)cccc1Cl)N1CCC(Cn2ccnc2)CC1 [compound 4]
 |  |  | 25.6 | COc1ccc(-c2cn3cccnc3n2)cc1NC(=O)Nc1ccc(F)cc1 [compound 7]
 | 1130 ± 158 |  |  | CC1(c2ccc(Cl)cc2Cl)OCC(Cn2cncn2)O1 (stereo not shown) [compound 8, 8]
57 ± 7 |  | 44.3 | 81.7 | CC1(c2ccc(Cl)cc2Cl)OCC(Cn2cncn2)O1 (stereo not shown) [compound 8]
 |  | 89.7 | 96.7 | CC(NC(=O)c1cc2cc(Cl)ccc2oc1=O)c1ccc(-n2ccnc2)cc1 (stereo not shown) [compound 9]
 |  |  | 38.1 | O=c1cc(Cn2ccnc2)c2cc(O)c(-c3ccccc3)cc2o1 [compound 10]
 |  |  | 80.4 | N#Cc1ccc(C(c2ccc(C#N)cc2)n2cncn2)cc1 [letrozole]
